The source of these data is patent US20240067693A1, “POLYPEPTIDES AND USES THEREOF” (MEDIMMUNE LIMITED, priority 2020, published 2024).

Numbered stars: 1 amine (or outer) side, 2 acyl side, 3 side chain; on linkers, the order of the positions; unused ones are H or OH. Bridge positions count the residues as written; N and C are the ends. Square brackets hold non-standard residues; d marks the D form. Side chains are listed from the residue outwards. Peptide text beside a SMILES is read from it. * marks the point of attachment. C20 diacid = O=C(O)CCCCCCCCCCCCCCCCCCC(=O)*; C18 diacid = O=C(O)CCCCCCCCCCCCCCCCC(=O)*; γGlu = O=C(O)[C@H](CCC(=O)[*:2])N[*:1]; αMeF = C[C@](N)(Cc1ccccc1)C(=O)O; Aib = CC(C)(N)C(=O)O

Data set [1] deals with T1, human amylin receptor (calcitonin receptor co-expressed with receptor activity modifying protein, RAMP3) (hAMYR3) (Homo sapiens, UniProt O60896+P30988).
T1 construct: expressed in transfected cells
T1 sequence (P30988 25-474): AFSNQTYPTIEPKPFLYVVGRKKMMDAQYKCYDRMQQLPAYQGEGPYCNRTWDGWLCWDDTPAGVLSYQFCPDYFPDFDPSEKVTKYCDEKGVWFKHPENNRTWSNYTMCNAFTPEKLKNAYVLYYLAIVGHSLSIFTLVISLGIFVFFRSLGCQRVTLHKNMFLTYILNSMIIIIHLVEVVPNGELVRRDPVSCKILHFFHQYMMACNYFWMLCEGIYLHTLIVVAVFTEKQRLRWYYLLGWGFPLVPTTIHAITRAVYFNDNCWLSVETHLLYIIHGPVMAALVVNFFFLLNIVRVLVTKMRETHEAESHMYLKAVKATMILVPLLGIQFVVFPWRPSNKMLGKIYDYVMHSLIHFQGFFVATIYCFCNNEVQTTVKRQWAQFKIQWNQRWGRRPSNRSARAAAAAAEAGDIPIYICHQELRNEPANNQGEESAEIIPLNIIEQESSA
T1 sequence (O60896 24-148 partner): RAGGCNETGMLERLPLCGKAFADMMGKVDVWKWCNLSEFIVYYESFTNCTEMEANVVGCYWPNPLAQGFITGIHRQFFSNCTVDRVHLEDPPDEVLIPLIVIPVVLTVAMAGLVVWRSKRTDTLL
Kind of data set: cAMP production in 1321N1 cells with stable recombinant expression of human amylin receptor (hAMYR3). It counts as cell-based. The note with it: for Ratio (selectivity hAMYR vs hCTR, ratio of EC50 values at the two receptors): EC50 hCTR / EC50 hAMYR3; for EC50: cAMP, 1321N1 cells, assay buffer with 0.1% BSA, read-out: EC50 (pM) hAMYR3. A digest of the protocol:
(§1)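 Receptor-expressing cells (human receptors in 1321N1, rat receptors in HEK) incubated 30 min at room temperature with peptide in HBSS/HEPES pH 7.4, 0.1% BSA, 0.5 mM IBMX. cAMP read by HTRF; EC50 from 4-parameter fit as % of maximal amylin or calcitonin response.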

The target in data set [2] is T2, human calcitonin receptor (hCTR) (Homo sapiens, UniProt P30988).
T2 construct: expressed in transfected cells
T2 sequence (P30988 25-474): T1 sequence (P30988 25-474)
Kind of data set: cAMP production in 1321N1 cells with stable recombinant expression of human calcitonin receptor (hCTR). It counts as cell-based. The note with it: cAMP, 1321N1 cells, assay buffer with 0.1% BSA; read-out: EC50 (pM) hCTR. A digest of the protocol: as §1
Background: cAMP levels reflect the balance of adenylyl cyclase and phosphodiesterase activity.

The target of data set [3] is T3, rat calcitonin receptor (rat CTR) (Rattus norvegicus, UniProt P32214).
T3 construct: expressed in transfected cells
T3 sequence (P32214 25-516): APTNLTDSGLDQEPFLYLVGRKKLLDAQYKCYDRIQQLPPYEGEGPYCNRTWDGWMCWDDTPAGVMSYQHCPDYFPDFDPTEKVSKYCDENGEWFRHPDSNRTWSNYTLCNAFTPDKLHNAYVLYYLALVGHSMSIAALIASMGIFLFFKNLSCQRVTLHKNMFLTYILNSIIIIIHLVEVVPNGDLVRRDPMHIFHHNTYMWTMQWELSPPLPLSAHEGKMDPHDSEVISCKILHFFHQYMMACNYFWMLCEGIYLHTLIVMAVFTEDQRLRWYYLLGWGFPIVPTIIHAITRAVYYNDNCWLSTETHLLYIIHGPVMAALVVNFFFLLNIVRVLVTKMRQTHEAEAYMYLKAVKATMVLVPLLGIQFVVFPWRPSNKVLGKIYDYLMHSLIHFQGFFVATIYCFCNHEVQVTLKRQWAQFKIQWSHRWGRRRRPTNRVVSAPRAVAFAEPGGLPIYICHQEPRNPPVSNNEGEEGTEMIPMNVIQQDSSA
Put plainly: cAMP production in HEK cells with stable recombinant expression of rat calcitonin receptor (rat CTR). It counts as cell-based. The conditions noted are these: assay buffer with 0.1% BSA. An outline of the steps:
as §1

The nature of data set [4]: Thioflavin T fibrillation assay. The note with it: for Time taken to detect increase in fluorescence intensity: ThT fibrillation assay, peptide 1 mg/mL in 25 mM sodium acetate buffer pH 4.0, 6 days at 37 °C with shaking, >144 h = no increase. It counts as physicochemical. A digest of the protocol:
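Peptides at 1 mg/mL in 25 mM sodium acetate pH 4.0 with ThT (from 0.25 mM stock), incubated 6 days at 37 °C with intermittent orbital shaking at 500–750 rpm. Fluorescence (ex 444/em 480 nm) read every 30 min; value is average time to a rise in baseline-corrected signal.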

For the compound `CC[C@H](C)[C@H](NC(=O)[C@@H]1CCCN1C(=O)CNC(=O)[C@H](Cc1ccccc1)NC(=O)[C@H](CC(N)=O)NC(=O)[C@H](CC(N)=O)NC(=O)[C@H](CO)NC(=O)[C@H](CO)NC(=O)[C@H](Cc1c[nH]cn1)NC(=O)[C@@H](NC(=O)[C@H](CC(C)C)NC(=O)[C@H](Cc1ccccc1)NC(=O)[C@H](CC(N)=O)NC(=O)[C@H](C)NC(=O)[C@H](CC(C)C)NC(=O)[C@H](CCCNC(=N)N)NC(=O)[C@H](CCC(N)=O)NC(=O)[C@@H](NC(=O)[C@H](C)NC(=O)[C@@H]1CSSC[C@H](NC(=O)[C@H](CCCCN)NC(=O)CC[C@H](NC(=O)CCCCCCCCCCCCCCCCCCC(=O)O)C(=O)O)C(=O)N[C@@H](CC(N)=O)C(=O)N[C@@H]([C@@H](C)O)C(=O)N[C@@H](C)C(=O)N[C@@H]([C@@H](C)O)C(=O)N1)[C@@H](C)O)C(C)C)C(=O)N[C@@H](CC(C)C)C(=O)N1CCC[C@H]1C(=O)N1CCC[C@H]1C(=O)N[C@H](C(=O)N[C@@H](CC(N)=O)C(=O)N[C@H](C(=O)NCC(=O)N[C@@H](CO)C(=O)N[C@@H](CC(N)=O)C(=O)N[C@H](C(=O)N[C@@H](Cc1ccc(O)cc1)C(N)=O)[C@@H](C)O)C(C)C)[C@@H](C)O` [Peptide 112] ({C20 diacid-γGlu}-KCNTATCATQRLANFLVHSSNNFGPILPPTNVGSNTY-NH2; disulfide 2-7), in data set [1], the “Ratio (selectivity hAMYR vs hCTR, ratio of EC50 values at the two receptors)” value is 2. Moreover, the EC50 was determined as 861 pM in data set [1], 1340 pM in data set [2] and 258 pM in data set [3]. Besides, the fibril-forming tendency result in data set [4] (ThT assay, 1 mg/mL, pH 4.0, 37 °C, compared to pramlintide) is reported as “increases the fibril-forming tendency”. In data set [4], the “Time taken to detect increase in fluorescence intensity” value (shortened to “Time taken to detect increase”) is recorded as below 5 h.

As for `CC[C@H](C)[C@H](NC(=O)[C@@H]1CCCN1C(=O)CNC(=O)[C@H](Cc1ccccc1)NC(=O)[C@H](CC(N)=O)NC(=O)C(C)(C)NC(=O)[C@H](CO)NC(=O)[C@H](CO)NC(=O)[C@H](Cc1c[nH]cn1)NC(=O)[C@H](CCCNC(=N)N)NC(=O)[C@H](CC(C)C)NC(=O)[C@H](Cc1ccccc1)NC(=O)[C@H](CC(N)=O)NC(=O)[C@H](C)NC(=O)[C@H](CC(C)C)NC(=O)[C@H](CCCNC(=N)N)NC(=O)[C@H](CCC(N)=O)NC(=O)[C@@H](NC(=O)[C@H](C)NC(=O)[C@@H]1CSSC[C@H](NC(=O)[C@@H](N)CCCCNC(=O)CC[C@H](NC(=O)CCCCCCCCCCCCCCCCC(=O)O)C(=O)O)C(=O)N[C@@H](CC(N)=O)C(=O)N[C@@H]([C@@H](C)O)C(=O)N[C@@H](C)C(=O)N[C@@H]([C@@H](C)O)C(=O)N1)[C@@H](C)O)C(=O)N[C@@H](CC(C)C)C(=O)N1CCC[C@H]1C(=O)N1CCC[C@H]1C(=O)N[C@H](C(=O)N[C@@H](CCC(=O)O)C(=O)N[C@H](C(=O)NCC(=O)N[C@@H](CO)C(=O)N[C@@H](CC(N)=O)C(=O)N[C@H](C(=O)N[C@@H](Cc1ccc(O)cc1)C(N)=O)[C@@H](C)O)C(C)C)[C@@H](C)O` [Peptide 44, K(γE-C18diacid)[CNTATC]ATQRLANFLRHSS(Aib)NFGPILPPTEVGSNTY-amide] (H-K([γGlu-C18 diacid])CNTATCATQRLANFLRHSS[Aib]NFGPILPPTEVGSNTY-NH2; disulfide 2-7; N-terminus assumed), in data set [1], the “Ratio (selectivity hAMYR vs hCTR, ratio of EC50 values at the two receptors)” value is listed as 22. Further, the EC50 in data set [1] amounted to 284 pM; in data set [2], 6260 pM; in data set [3], 2240 pM. Further, the “Time taken to detect increase” value in data set [4] is above 144 h.

As for `CC[C@H](C)[C@H](NC(=O)[C@@H]1CCCN1C(=O)CNC(=O)[C@](C)(Cc1ccccc1)NC(=O)[C@H](CC(N)=O)NC(=O)[C@H](CC(N)=O)NC(=O)[C@H](CO)NC(=O)[C@H](CO)NC(=O)[C@H](Cc1c[nH]cn1)NC(=O)[C@H](CCCNC(=N)N)NC(=O)[C@H](CC(C)C)NC(=O)[C@H](Cc1ccccc1)NC(=O)[C@H](CC(N)=O)NC(=O)[C@H](C)NC(=O)[C@H](CC(C)C)NC(=O)[C@H](CCCNC(=N)N)NC(=O)[C@H](CCC(N)=O)NC(=O)[C@@H](NC(=O)[C@H](C)NC(=O)[C@@H]1CSSC[C@H](NC(=O)[C@@H](N)CCCCNC(=O)CC[C@H](NC(=O)CC[C@H](NC(=O)CCCCCCCCCCCCCCCCC(=O)O)C(=O)O)C(=O)O)C(=O)N[C@@H](CC(N)=O)C(=O)N[C@@H]([C@@H](C)O)C(=O)N[C@@H](C)C(=O)N[C@@H]([C@@H](C)O)C(=O)N1)[C@@H](C)O)C(=O)N[C@@H](CC(C)C)C(=O)N1CCC[C@H]1C(=O)N1CCC[C@H]1C(=O)N[C@H](C(=O)N[C@@H](CCC(=O)O)C(=O)N[C@H](C(=O)NCC(=O)N[C@@H](CO)C(=O)N[C@@H](CC(N)=O)C(=O)N[C@H](C(=O)N[C@@H](Cc1ccc(O)cc1)C(N)=O)[C@@H](C)O)C(C)C)[C@@H](C)O` [Peptide 18, K(γE-γE-C18diacid)[CNTATC]ATQRLANFLRHSSNN(αMePhe)GPILPPTEVGSNTY-amide] (H-K([γGlu-γGlu-C18 diacid])CNTATCATQRLANFLRHSSNN[αMeF]GPILPPTEVGSNTY-NH2; disulfide 2-7; N-terminus assumed), the “Ratio (selectivity hAMYR vs hCTR, ratio of EC50 values at the two receptors)” value in data set [1] came out at 15. In addition, the values for the EC50 in data set [1], in data set [2] and in data set [3] were 319 pM, 4690 pM and 3090 pM, respectively. Besides, in data set [4], the “Time taken to detect increase” value is on record as above 144 h.

`CC[C@H](C)[C@H](NC(=O)[C@@H]1CCCN1C(=O)CNC(=O)[C@](C)(Cc1ccccc1)NC(=O)[C@H](CC(N)=O)NC(=O)[C@H](CC(N)=O)NC(=O)[C@H](CO)NC(=O)[C@H](CO)NC(=O)[C@H](Cc1c[nH]cn1)NC(=O)[C@H](CCCNC(=N)N)NC(=O)[C@H](CC(C)C)NC(=O)[C@H](Cc1ccccc1)NC(=O)[C@H](CCC(=O)O)NC(=O)[C@H](C)NC(=O)[C@H](CC(C)C)NC(=O)[C@H](CCCNC(=N)N)NC(=O)[C@H](CCC(N)=O)NC(=O)[C@@H](NC(=O)[C@H](C)NC(=O)[C@@H]1CSSC[C@H](NC(=O)[C@H](CCCCN)NC(=O)[C@@H](N)CCCCNC(=O)CC[C@H](NC(=O)CCCCCCCCCCCCCCCCC(=O)O)C(=O)O)C(=O)N[C@@H](CC(N)=O)C(=O)N[C@@H]([C@@H](C)O)C(=O)N[C@@H](C)C(=O)N[C@@H]([C@@H](C)O)C(=O)N1)[C@@H](C)O)C(=O)N[C@@H](CC(C)C)C(=O)N1CCC[C@H]1C(=O)N1CCC[C@H]1C(=O)N[C@H](C(=O)N[C@@H](CC(N)=O)C(=O)N[C@H](C(=O)NCC(=O)N[C@@H](CO)C(=O)N[C@@H](CC(N)=O)C(=O)N[C@H](C(=O)N[C@@H](Cc1ccc(O)cc1)C(N)=O)[C@@H](C)O)C(C)C)[C@@H](C)O` [Peptide 12, K(γE-C18diacid)K[CNTATC]ATQRLAEFLRHSSNN(αMePhe)GPILPPTNVGSNTY-amide] (H-K([γGlu-C18 diacid])KCNTATCATQRLAEFLRHSSNN[αMeF]GPILPPTNVGSNTY-NH2; disulfide 3-8; N-terminus assumed): the “Ratio (selectivity hAMYR vs hCTR, ratio of EC50 values at the two receptors)” value in data set [1] was found to be 8. Also, the EC50 in data set [1] was 158 pM; in data set [2] it was 1220 pM; in data set [3] it was 107 pM. Also, the “Time taken to detect increase” value in data set [4] is given as above 144 h.

As usually defined, the EC50 is the concentration at which the effect is half-maximal.
